Key:
RT-112 cells = test: RT-112 Dual Inhibition: reversal of rescue with selective inhibitors, CellTiter-Glo cell viability; format: cell-based; conditions: RT-112, rhHGF or rhNRG-1 250 ng/ml, 96 h; BGJ398 100 nM, Cpd. A/Cpd. B 500 nM, Lapatinib 1.5 μM; FIG. 5, FIG. 6
Experimental: RT-112 Secretome screen: The basic format was identical to the MKN-45 secretome screen with slight modifications. RT-112 cells were plated in EMEM+10% in white, tissue-culture treated 384-well plates at 1000 cells/20 μl/well and allowed to attach overnight. Supernatant from library-transfected HEK293T/17 cells was transferred as described above for the MKN-45 secretome screen. Purified proteins rhNRG1-31 and rhTGFα were added as positive controls, at a final concentration of 150 ng/ml. Following addition of supernatants and purified protein controls, BGJ398 diluted in DMEM was added at 10 μl/well for a final assay concentration of 100 nM. Cell viability was measured after 72 hours using CellTiter-Glo as described above. (FIG. 2)
RT-112 Dual Inhibition: The format for the RT-112 dual inhibition experiment was similar to that described for MKN-45 with the following modifications. RT-112 cells were plated at 1000 cells/20 μl/well. Solutions of rhHGF and rhNRG-1 were added to achieve a final concentration of 250 ng/ml. Single and dual inhibition conditions were prepared as follows: BGJ398, Cpd. A, Cpd. B, Lapatinib, BGJ398 and Cpd. A, BGJ398 and Cpd. B, BGJ398 and Lapatinib. Final concentrations for each compound, whether single or combined, were as follows: 100nM for BGJ398, 500 nM for Cpd. A and Cpd. B, and 1.5 μM for Lapatinib. After 96 hours cell viability was measured by CellTiter-Glo as previously described. (FIG. 5, FIG. 6).

MKN-45 cells = test: MKN-45 Dual Inhibition: reversal of rescue with selective inhibitors, CellTiter-Glo cell viability; format: cell-based; conditions: for activity on cell viability (reversal of rescue): MET-dependent MKN-45, rhFGF7 or rhNRG-1 250 ng/ml, 96 h, Cpd. A/Cpd. B 100 nM, BGJ398 500 nM, Lapatinib 1.5 μM, FIG. 3, FIG. 4
Experimental: MKN-45 Secretome screen: MKN-45 cells were plated in white, tissue-culture treated 384-well plates (Greiner) at 3000 cells/20 μl DMEM +10% FBS/well and allowed to attach overnight. Supernatant from library-transfected HEK293T/17 cells was then transferred to the MKN-45 cells at 30 μl/well using a Biomek FX liquid handler (Beckman Coulter) with pipetting speeds reduced to minimize disturbance of the HEK293T/17 monolayer. As positive controls, the purified proteins rhEGF and rhNRG1-31 (R&D Systems) were added to isolated wells on each plate for a final concentration of 150 ng/ml; supernatant from mock-transfected HEK293T/17 wells were transferred as neutral controls. Following addition of supernatants and purified protein controls, Cpd. A diluted in DMEM was added at 10 μl/well for a final assay concentration of 100 nM. After 96 hours incubation, growth was measured using the CellTiter-Glo luminescent cell viability assay system (Promega). In brief, 30 μl CellTiter-Glo reagent was added to all wells, then incubated for 15 minutes at room temperature before reading luminescence on a Viewlux plate reader (Perkin Elmer). (FIG. 1)
MKN-45 Dual Inhibition: MKN-45 cells were seeded at 3000 cells/20 μl/well in 384-well plates and incubated overnight. Solutions of rhFGF7 and rhNRG-1 were prepared in DMEM+10%FBS, then added at 30 μl/well to achieve a final concentration of 250 ng/ml (one purified protein per treatment). The following single and dual inhibition treatments were prepared in DMEM and added at […]: Cpd. A, Cpd. B, BGJ398, Lapatinib, Cpd. A and BGJ398, Cpd. B and BGJ398, Cpd. A and Lapatinib, Cpd. B and Lapatinib. Final concentrations for each compound, whether single or combined, were as follows: 100 nM for Cpd. A and Cpd. B, 500 nM for BGJ398 and 1.5 μM for Lapatinib. After 96 hours cell viability was measured by CellTiter-Glo as previously described. (FIG. 3, FIG. 4)

Compound | activity on cell viability (reversal of rescue) (RT-112 cells) | activity on cell viability (reversal of rescue) (MKN-45 cells) | reversal of ligand-mediated rescue of proliferation (MKN-45 cells; MKN-45 in presence of MET inhibitor Cpd. A or Cpd. B, FIGS. 3, 4)
CCN1CCN(c2ccc(Nc3cc(N(C)C(=O)Nc4c(Cl)c(OC)cc(OC)c4Cl)ncn3)cc2)CC1 [BGJ398, 3-(2,6-dichloro-3,5-dimethoxy-phenyl)-1-{6-[4-(4-ethylpiperazin-1-yl)-phenylamino]-pyrimidin-4-yl}-1-methyl-urea] | active | not sufficient | selectively reverse rescue mediated by FGF7
CNC(=O)c1ccc(-c2cnc3ncc(Cc4ccc5ncccc5c4)n3n2)cc1F [Cpd. B, 2-fluoro-N-methyl-4-[(7-quinolin-6-yl-methyl)-imidazo[1,2-b]triazin-2-yl]benzamide] | not sufficient | active | 
